Results on seven molecules are retold here after publication PMC3748936 (Chembiochem : a European journal of chemical biology, 2012).

The target in series [1] is T1, E. coli GMPS (Escherichia coli, UniProt P04079).
T1 sequence (P04079 1-525): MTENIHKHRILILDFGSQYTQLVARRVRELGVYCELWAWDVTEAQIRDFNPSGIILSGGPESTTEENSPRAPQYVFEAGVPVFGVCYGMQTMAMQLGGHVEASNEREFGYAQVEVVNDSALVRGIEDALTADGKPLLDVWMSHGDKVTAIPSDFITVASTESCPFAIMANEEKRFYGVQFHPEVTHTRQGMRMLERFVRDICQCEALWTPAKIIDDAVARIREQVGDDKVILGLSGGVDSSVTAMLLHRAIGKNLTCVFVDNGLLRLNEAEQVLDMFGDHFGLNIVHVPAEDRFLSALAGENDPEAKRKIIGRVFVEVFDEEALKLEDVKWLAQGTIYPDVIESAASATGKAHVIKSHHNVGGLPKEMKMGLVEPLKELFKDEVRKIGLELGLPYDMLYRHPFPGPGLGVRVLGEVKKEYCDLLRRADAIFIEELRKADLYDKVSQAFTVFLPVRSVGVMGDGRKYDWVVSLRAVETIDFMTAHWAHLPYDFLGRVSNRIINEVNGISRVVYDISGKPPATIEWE
The experiment in a line: GMPS inhibition of D-XMP amination, UV-Vis analysis. The format is biochemical.

Series [2] deals with GMPS isolated from rat Walker sarcoma cells. The settings on record: cited from earlier work.
The target in the next series is GMPS. The settings on record: previous report; cited from earlier work.
In series [3] the target is T1, E. coli GMPS. Particulars: previous report; cited from earlier work.
Series [4] addresses T1, E. coli GMPS. Nature of the series: Continuous UV spectrophotometric assay of GMPS. The format is biochemical. Particulars: UV-Vis analysis, triplicate, average +/- S.D.
For series [5], the target named is T1, E. coli GMPS. The experiment in a line: HPLC-based assay of GMPS enzymatic reaction products. The format is biochemical.
Substrate in series [6]: O=c1[nH]c(=O)c2ncn([C@@H]3O[C@H](COP(=O)(O)O)[C@@H](O)[C@H]3O)c2[nH]1
The experiment in a line: Continuous UV spectrophotometric assay of GMPS. Particulars: other: UV-Vis analysis; triplicate, average +/- S.D. The format is biochemical, E. coli.

As to `O=c1[nH]c(=O)c2ncn(C3OC(CO)C(O)C3O)c2[nH]1` [L-Xanthosine, L-xanthosine], on E. coli GMPS [1], the “GMPS inhibition (in words)” value was “neither molecule inhibited GMPS”.

As usually defined, the Ki is a dissociation constant, usually derived from enzyme kinetics or from competition with a known ligand. `NC(=O)c1ncn([C@@H]2O[C@H](CO)[C@@H](O)[C@H]2O)c1O` [Mizoribine]: the Ki was 10 µM in series [2] and 1.8 ± 0.7 µM on E. coli GMPS [1].

`C=C1O[C@@](CO)(n2cnc3c(N)ncnc32)[C@H](O)[C@@H]1O` [Decoyinine, decoyinine]: the Ki was 54.1 ± 14.5 µM on E. coli GMPS [1] and 26 µM on GMPS.

For the molecule `O=c1[nH]c(=O)c2ncn([C@@H]3O[C@H](COP(=O)(O)O)[C@@H](O)[C@H]3O)c2[nH]1` [D-XMP, xanthosine 5′-monophosphate], the “kcat (turnover number)” value on E. coli GMPS [3] was 9.4×10^–2 s^–1.

What is called Km is the substrate concentration at which the rate is half of its maximum. `O=c1[nH]c(=O)c2ncn([C@H]3O[C@@H](COP(=O)(O)O)[C@H](O)[C@@H]3O)c2[nH]1` [L-XMP]: on E. coli GMPS [4] (substrate turnover to GMP), the kcat is recorded as 3.1 (± 0.7) × 10^−6 s^−1. Moreover, the Km on E. coli GMPS [4] turned out to be 330 ± 105 µM. For the same molecule, the “fold more potent than decoyinine inhibition against E. coli GMPS” value at E. coli GMPS [1] (from Ki values) is recorded as roughly 7 fold. At E. coli GMPS [5] (HPLC analysis), the “Km fold higher than the natural enantiomer D-XMP” value is listed as ~ 10 fold, the “kcat fold difference in turnover number compared to D-XMP” value was 15,000 fold and the “kcat/Km (specific activity) fold decrease from the natural enantiomer” value was 140,000 fold. Moreover, at E. coli GMPS [5] (incubation with GMPS and NH4OAc), the “conversion of substrate by GMPS (HPLC peak, MS confirmed)” value is on record as “converted to L-GMP by GMPS”.

Turning to `OC[C@H]1O[C@@H](n2cnc3c(O)nc(O)nc32)[C@H](O)[C@@H]1O` [D-Xanthosine, D-xanthosine], the “GMPS inhibition (in words)” value on E. coli GMPS [1] was “neither molecule inhibited GMPS”.

B1: E. coli GMPS (Escherichia coli K-12) (protein)
chain: T1 sequence (P04079 1-525)
One may read the kcat/Km as the second-order rate constant that governs catalysis at low substrate concentration. Regarding B1, in series [6], the Km stood at 24.9 ± 6.6 µM, the kcat was found to be 0.043 ± 0.007 s⁻¹ and the kcat/Km came out at 1700 M⁻¹ s⁻¹.
